Measured values reported in patent US20240254138A1, “TRICYCLIC PYRIMIDINES AS CYCLIN-DEPENDENT KINASE 7 (CDK7) INHIBITORS” (JANSSEN PHARMACEUTICA NV, priority 2021, published 2024).
Like-named read-outs stand apart in the source and are kept apart here.

What was measured:
[1] = system: RNA Polymerase II Serine 5 phosphorylation (Rpb1 CTD, downstream substrate of CDK7) in A549 cells; assay: Imaging-based cellular RNA PolII Ser5 phosphorylation assay in A549 cells; format: cell-based, human; conditions: wild-type CDK7, RNA PolII Ser5 phosphorylation, averaged over all measurements; for IC50: Homo sapiens, A549, A549 cells, read-out: CDK7_A549 Wild-type CDK7 (pIC50) (converted); for CDK7_A549 Wild-type CDK7 (pIC50): A549 cells
In short: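 A549 cells, seeded 1000/well in DMEM with 1% FBS and cultured 20 h, were treated with compound for 3 h at 37 °C. Ser5-phospho-Rpb1 CTD detected by immunofluorescence imaging after fixation and methanol permeabilization; IC50 from curve fit normalized to DMSO and 10 μM reference-compound controls.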

[2] = system: RNA Polymerase II Serine 5 phosphorylation in A549 cells overexpressing CDK7-mutant (C312S); assay: Imaging-based cellular RNA PolII Ser5 phosphorylation assay in A549 cells overexpressing CDK7-mutant (C312S); format: cell-based, human; conditions: RNA PolII Ser5 phosphorylation, averaged over all measurements; for IC50: Homo sapiens, A549, A549 cells overexpressing CDK7-mutant (C312S), read-out: CDK7_A549 mutant hCDK7(pIC50) (converted); for CDK7_A549 mutant hCDK7(pIC50): A549 cells overexpressing CDK7-mutant (C312S)
In short: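 A549 cells overexpressing CDK7 C312S (with endogenous wild-type CDK7) were treated with compound for 3 h at 37 °C in 1% FBS medium. Phospho-Rpb1 CTD Ser5 was immunostained after fixation and imaged. IC50 came from curve fit of % control, normalised to DMSO and 10 μM reference-compound controls.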

[3] = biological target: CDK7/cyclinH/MAT1 trimeric complex (Homo sapiens, UniProt P50613); assay: In vitro CDK7 assay, potency of irreversible covalent inhibitors (kinact/KI), coupled PK/LDH ADP readout at 340 nm; conditions: for Ki: CDK7 (20 nM enz.) (KI, μM); for Ki / CDK7 (20 nM enz.) (kinact, s^−1) / CDK7 (20 nM enz.) (kinact/KI, M^−1*s^−1) / CDK7 (20 nM enz.) (kobs/[I], M^−1*s^−1): 20 nM enzyme; for kinact: read-out: CDK7 (20 nM enz.) (kinact, s^−1), 20 nM enzyme
[4] = read-out: CDK7 (20 nM enz.) (kinact/KI, M^−1*s^−1), 20 nM enzyme
[5] = read-out: CDK7 (20 nM enz.) (kobs/[I], M^−1*s^−1), 20 nM enzyme

CDK7/cyclinH/MAT1 trimeric complex, sequence (P50613 whole entry): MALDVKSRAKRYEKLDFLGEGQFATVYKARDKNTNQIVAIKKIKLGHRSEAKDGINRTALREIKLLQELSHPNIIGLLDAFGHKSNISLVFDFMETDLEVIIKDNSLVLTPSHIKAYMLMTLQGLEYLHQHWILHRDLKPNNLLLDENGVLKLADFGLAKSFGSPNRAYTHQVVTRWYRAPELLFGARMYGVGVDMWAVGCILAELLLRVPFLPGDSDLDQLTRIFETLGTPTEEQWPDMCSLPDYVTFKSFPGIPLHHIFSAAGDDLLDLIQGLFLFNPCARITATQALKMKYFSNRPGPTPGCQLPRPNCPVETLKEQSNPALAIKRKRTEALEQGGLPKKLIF
CDK7/cyclinH/MAT1 trimeric complex, sequence (P51946 whole entry partner): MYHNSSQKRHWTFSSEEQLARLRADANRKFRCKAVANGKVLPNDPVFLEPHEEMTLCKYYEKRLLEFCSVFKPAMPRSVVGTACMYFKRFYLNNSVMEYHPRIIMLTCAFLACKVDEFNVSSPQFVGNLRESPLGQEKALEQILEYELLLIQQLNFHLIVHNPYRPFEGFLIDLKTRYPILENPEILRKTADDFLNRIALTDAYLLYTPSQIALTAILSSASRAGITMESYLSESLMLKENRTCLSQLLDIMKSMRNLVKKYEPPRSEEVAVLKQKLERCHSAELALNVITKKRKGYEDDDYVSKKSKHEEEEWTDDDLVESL
CDK7/cyclinH/MAT1 trimeric complex, sequence (P51948 whole entry partner): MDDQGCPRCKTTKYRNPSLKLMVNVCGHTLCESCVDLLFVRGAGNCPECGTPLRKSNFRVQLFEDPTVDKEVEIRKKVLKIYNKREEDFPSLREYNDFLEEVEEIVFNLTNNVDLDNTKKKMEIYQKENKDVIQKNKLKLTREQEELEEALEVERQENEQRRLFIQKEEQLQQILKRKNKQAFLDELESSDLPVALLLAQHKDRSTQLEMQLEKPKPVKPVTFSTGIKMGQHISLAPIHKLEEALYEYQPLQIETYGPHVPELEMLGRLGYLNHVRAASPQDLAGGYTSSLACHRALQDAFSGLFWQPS

SMILES | IC50 [1] | IC50 [2] | Ki [3] | kinact [3] | kinact/KI [3, 4] | CDK7 (20 nM enz.) (kinact, s^−1) [3] | CDK7 (20 nM enz.) (kinact/KI, M^−1*s^−1) [3] | kinact/KI [3, 5] | CDK7_A549 Wild-type CDK7 (pIC50) [1] | CDK7_A549 mutant hCDK7(pIC50) [2] | CDK7 (20 nM enz.) (kobs/[I], M^−1*s^−1) [3]
C=CC(=O)N1CCC(N2CC(c3cc(F)c4c(c3)Nc3nccc(C5CCOCC5)c3CO4)C2)CC1 [Compound 112] | 155 nM | 8.51 µM | 0.0653 µM | 4.53e-05 s⁻¹ | 693 M⁻¹ s⁻¹ |  |  |  |  |  | 
C=CC(=O)N1CC(c2ncc(-c3cc(C)c4c(c3)Nc3nccc(C5CCOCC5)c3CO4)cn2)C1 [Compound 114] | 50.1 nM | > 10 µM | 0.0779 µM | 4.23e-05 s⁻¹ | 543 M⁻¹ s⁻¹ |  |  |  |  |  | 
C=CC(=O)N1CC(N2CCC(c3cc(Cl)c4c(c3)Nc3nccc(C5CCOCC5)c3CO4)CC2)C1 [Compound 119] |  |  |  |  |  |  |  |  | 7.42 | <5 | 1611.37 M⁻¹ s⁻¹
C=CC(=O)N1CC(N2CCC(c3ccc4c(c3)Nc3nccc(N5CCOCC5)c3CO4)CC2)C1 [Compound 121] |  |  | 0.0963 µM |  |  | 9.753e-05 s⁻¹ | 1012.54 M⁻¹ s⁻¹ |  | 6.9 | <5 | 
C#CCCN(C)C/C=C/C(=O)N1CC(N2CCC(c3cc(C)c4c(c3)Nc3nccc(N5CCOCC5)c3CO4)CC2)C1 [Compound 122] | 69.2 nM | > 10 µM |  |  |  |  |  | 1660 M⁻¹ s⁻¹ |  |  | 
C#CCCN(C)C/C=C/C(=O)N1CC(N2CCC(c3cc(C)c4c(c3)Nc3nccc(C5CCOCC5)c3CO4)CC2)C1 [Compound 124] | 97.7 nM | > 10 µM |  |  |  |  |  | 1550 M⁻¹ s⁻¹ |  |  | 
C=CC(=O)N1CC(N2CCC(c3cc4c(cn3)OCc3c(C5CCOCC5)ccnc3N4)CC2)C1 [Compound 130] | 97.7 nM | > 10 µM | 0.11 µM | 7.73e-05 s⁻¹ | 704 M⁻¹ s⁻¹ |  |  |  |  |  | 
C=CC(=O)N1CC(N2CCC(c3ccc4c(c3)Nc3nccc(N5CCc6nn(C)cc6C5)c3CO4)CC2)C1 [Compound 132] | 363 nM | > 10 µM | 0.312 µM | 7.08e-05 s⁻¹ | 227 M⁻¹ s⁻¹ |  |  |  |  |  | 
C=CC(=O)N1CC(N2CCC(c3cc(C)c4c(c3)Nc3nccc(C5CCS(=O)(=O)CC5)c3CO4)CC2)C1 [Compound 133] | 166 nM | > 10 µM | 0.0971 µM | 6.94e-05 s⁻¹ | 715 M⁻¹ s⁻¹ |  |  |  |  |  | 
C=CC(=O)N1CC(N2CCC(c3cc4c(cn3)OCc3c(N5CCOCC5)ccnc3N4)CC2)C1 [Compound 137] | 126 nM | > 10 µM | 0.0382 µM | 6.41e-05 s⁻¹ | 1680 M⁻¹ s⁻¹ |  |  |  |  |  | 
C=CC(=O)N1CC(N2CCC(O)(c3cc(C)c4c(c3)Nc3nccc(N5CCOCC5)c3CO4)CC2)C1 [Compound 140] | 117 nM | > 10 µM | 0.0741 µM | 6.51e-05 s⁻¹ | 878 M⁻¹ s⁻¹ |  |  |  |  |  | 
C#CCCN(C)C/C=C/C(=O)N1CC(N2CCC(c3ccc4c(c3)Nc3nccc(N5CCOCC5)c3C(C)O4)CC2)C1 (centres unmarked) [Compound 146] | 214 nM | > 10 µM | 0.0285 µM | 5.53e-05 s⁻¹ | 1940 M⁻¹ s⁻¹ |  |  |  |  |  | 
C#CCCN(C)C/C=C/C(=O)N1CC(N2CCC(c3ccc4c(c3)Nc3nccc(C5CCOCC5)c3C(C)O4)CC2)C1 (centres unmarked) [Compound 147] | 288 nM | > 10 µM | 0.0278 µM | 5.84e-05 s⁻¹ | 2100 M⁻¹ s⁻¹ |  |  |  |  |  | 
C=CC(=O)N1CC(N2CCC(O)(c3ccc4c(c3)Nc3nccc(N5CCOCC5)c3C(C)O4)CC2)C1 (centres unmarked) [Compound 154] | 117 nM | > 10 µM | 0.137 µM | 5.98e-05 s⁻¹ | 438 M⁻¹ s⁻¹ |  |  |  |  |  | 

Continued, values first:

IC50 [1] | IC50 [2] | Ki [3] | kinact [3] | kinact/KI [3, 4] | CDK7 (20 nM enz.) (kinact, s^−1) [3] | CDK7 (20 nM enz.) (kinact/KI, M^−1*s^−1) [3] | kinact/KI [3, 5] | CDK7_A549 Wild-type CDK7 (pIC50) [1] | CDK7_A549 mutant hCDK7(pIC50) [2] | CDK7 (20 nM enz.) (kobs/[I], M^−1*s^−1) [3] | SMILES
933 nM | > 10 µM | 0.57 µM | 5.75e-05 s⁻¹ | 101 M⁻¹ s⁻¹ |  |  |  |  |  |  | C=CC(=O)N1CC(c2ncc(-c3cc(C)c4c(c3)Nc3nccc(N5CCS(=O)(=O)CC5)c3CO4)cn2)C1 [Compound 108]
257 nM | > 10 µM | 0.23 µM |  |  | 5.833e-05 s⁻¹ | 253.792 M⁻¹ s⁻¹ |  |  |  |  | C=CC(=O)N1CC(N2CC[C@H](c3ccc4c(c3)Nc3nccc(N5CCOCC5)c3CO4)[C@@H](F)C2)C1 [Compound 110]
45.7 nM | 4.17 µM |  |  |  |  |  | 622 M⁻¹ s⁻¹ |  |  |  | C=CC(=O)N1CCC(N2CC(c3cc4c(c(C(F)(F)F)c3)OCc3c(N5CCOCC5)ccnc3N4)C2)CC1 [Compound 111]
380 nM | > 10 µM | 0.39 µM | 6.16e-05 s⁻¹ | 158 M⁻¹ s⁻¹ |  |  |  |  |  |  | C=CC(=O)N1CCC(N2CCC(c3ccc4c(c3)Nc3nccc(N5CCS(=N)(=O)CC5)c3CO4)CC2)CC1 [Compound 113]
 |  | 0.0486 µM |  |  | 5.802e-05 s⁻¹ | 1193.86 M⁻¹ s⁻¹ |  | 6.66 | <5 |  | C=CC(=O)N1CC(N2CCC(c3cc(Cl)c4c(c3)Nc3nccc(N5CCS(=O)(=O)CC5)c3CO4)CC2)C1 [Compound 115]
398 nM | > 10 µM | 0.293 µM | 5.05e-05 s⁻¹ | 173 M⁻¹ s⁻¹ |  |  |  |  |  |  | C=CC(=O)N1CCC(c2nc(C)c(-c3cc(C)c4c(c3)Nc3nccc(C5CCOCC5)c3CO4)c(C)n2)CC1 [Compound 116]
126 nM | 7.76 µM | 0.0512 µM | 4.56e-05 s⁻¹ | 891 M⁻¹ s⁻¹ |  |  |  |  |  |  | C=CC(=O)N1CCC(N2CC(c3cc(F)c4c(c3)Nc3nccc(-c5cnn(C)c5)c3CO4)C2)CC1 [Compound 117]
70.8 nM | > 10 µM |  |  |  |  |  | 1620 M⁻¹ s⁻¹ |  |  |  | C#Cc1cc(C2CCN(C3CN(C(=O)C=C)C3)CC2)cc2c1OCc1c(C3CCOCC3)ccnc1N2 [Compound 118]
331 nM | > 10 µM | 0.0783 µM | 8.13e-05 s⁻¹ | 1040 M⁻¹ s⁻¹ |  |  |  |  |  |  | C#Cc1cc2c(cc1C1CCN(C3CN(C(=O)C=C)C3)CC1)Nc1nccc(C3CCOCC3)c1CO2 [Compound 120]
 |  | 0.0244 µM | 3.4e-05 s⁻¹ | 1390 M⁻¹ s⁻¹ |  |  |  | 7.15 | <5 |  | C=CC(=O)N1CC(N2CCC(c3ccc4c(c3)Nc3nccc(C5CCOCC5)c3CO4)CC2)C1 [Compound 123]
27.5 nM | 7.24 µM |  |  |  |  |  | 1230 M⁻¹ s⁻¹ |  |  |  | C=CC(=O)N1CC(N2CCC(c3cc(C#N)c4c(c3)Nc3nccc(C5CCOCC5)c3CO4)CC2)C1 [Compound 125]
47.9 nM | > 10 µM |  |  |  |  |  |  |  |  | 875.576 M⁻¹ s⁻¹ | C=CC(=O)N1CC(N2CCC(c3cc(F)c4c(c3)Nc3nccc(-c5cnn(C)c5)c3CO4)CC2)C1 [Compound 126]
151 nM | > 10 µM | 0.17 µM | 5.48e-05 s⁻¹ | 323 M⁻¹ s⁻¹ |  |  |  |  |  |  | C=CC(=O)N1CC(c2nc(C)c(-c3cc(C)c4c(c3)Nc3nccc(C5CCOCC5)c3CO4)c(C)n2)C1 [Compound 129]
263 nM | ~7.08 µM | 0.0578 µM | 5.71e-05 s⁻¹ | 988 M⁻¹ s⁻¹ |  |  |  |  |  |  | C=CC(=O)N1CC(N2CCC(c3cc4c(c(C(=O)NC)c3)OCc3c(C5CCOCC5)ccnc3N4)CC2)C1 [Compound 135]
72.4 nM | 7.24 µM | 0.0603 µM | 4.42e-05 s⁻¹ | 734 M⁻¹ s⁻¹ |  |  |  |  |  |  | C=CC(=O)N1CCC(N2CC(c3cc(F)c4c(c3)Nc3nccc(N5CCOCC5)c3CO4)C2)CC1 [Compound 136]
661 nM | > 10 µM | 0.515 µM | 6.73e-05 s⁻¹ | 131 M⁻¹ s⁻¹ |  |  |  |  |  |  | C=CC(=O)N1CC(N2CCC(c3cc4c(cc3CO)OCc3c(N5CCOCC5)ccnc3N4)CC2)C1 [Compound 139]
178 nM | > 10 µM | 0.16 µM | 8.36e-05 s⁻¹ | 523 M⁻¹ s⁻¹ |  |  |  |  |  |  | C=CC(=O)N1CC(N2CCC(c3cc(F)c4c(c3)Nc3nccc(N5CCS(=O)(=O)CC5)c3CO4)CC2)C1 [Compound 141]
37.2 nM | 5.5 µM | 0.0507 µM | 3.38e-05 s⁻¹ | 666 M⁻¹ s⁻¹ |  |  |  |  |  |  | C=CC(=O)N1CCC(N2CC(c3cc(Cl)c4c(c3)Nc3nccc(C5CCOCC5)c3CO4)C2)CC1 [Compound 148]
34.7 nM | > 10 µM | 0.0205 µM | 4.67e-05 s⁻¹ | 2280 M⁻¹ s⁻¹ |  |  |  |  |  |  | C=CC(=O)N1CC(N2CCC(c3ccc4c(c3)Nc3ncc(F)c(N5CCOCC5)c3CO4)CC2)C1 [Compound 151]
~67.6 nM | > 10 µM | 0.0242 µM | 4.68e-05 s⁻¹ | 1940 M⁻¹ s⁻¹ |  |  |  |  |  |  | C=CC(=O)N1CC(N2CCC(c3ccc4c(c3)Nc3nccc(-c5cnn(C)c5)c3C(C)(C)O4)CC2)C1 [Compound 152]
490 nM | > 10 µM | 0.304 µM | 9.03e-05 s⁻¹ | 298 M⁻¹ s⁻¹ |  |  |  |  |  |  | C=CC(=O)N1CC(N2CCC(c3cc(C)c4c(c3)Nc3ncc(C#N)c(N5CCOCC5)c3CO4)CC2)C1 [Compound 156]
